Data published in patent EP0547191B1, “PARTICULATE VECTOR HAVING SELECTIVE TROPISM, METHOD OF PREPARATION AND PHARMACEUTICAL COMPOSITION” (BIOVECTOR THERAPEUTICS SA, priority 1991, dated 1992).

System: fibroblastes humains normaux
Assay: Flow cytofluorimetry: cellular incorporation of doxorubicin measured by emitted fluorescence
Assay type: cell-based
Settings: fibroblasts after 48h in lipoprotein-depleted medium
Method: Après 48h de culture en milieu délipoprotéiné, les fibroblastes humains normaux sont incubés avec de la doxorubicine sous forme libre ou encapsulée dans des BVSM ou des BVSM-apoB. Après incubation, de 0, à 2h, ils sont lavés, mis en contact avec de la trypsine 0,05% pendant 1min à37°C, repris en suspension dans du milieu de culture et fixés par du paraformaldéhyde. Les suspensions cellulaires obtenues sont analysées à l'aide d'un cytofluorimètre de flux (Becton-Dickinson Fac-scan) et l'incorporation cellulaire de la doxorubicine est mesurée par l'intensité de fluorescence émise. Les témoins fibroblastes avec BVSM et BVSM-apoB sans doxorubicine ne présentent aucune fluoresence.
Les résultats obtenus sont présentés dans le tableau suivant : […]

## COc1cccc2c1C(=O)c1c(O)c3c(c(O)c1C2=O)C[C@@](O)(C(=O)CO)C[C@@H]3O[C@H]1C[C@H](N)[C@H](O)[C@H](C)O1 [Doxorubicine libre, doxorubicine]
Temps d'incubation 0 min
  Intensité de fluorescence émise: 5
Temps d'incubation 10 min
  Intensité de fluorescence émise: 22
Temps d'incubation 30 min
  Intensité de fluorescence émise: 25
Temps d'incubation 60 min
  Intensité de fluorescence émise: 31
Temps d'incubation 120 min
  Intensité de fluorescence émise: 42
